Measured values as given in patent US6713301B1, “Artificial T helper cell epitopes as immune stimulators for synthetic peptide immunogens” (United Biomedical, Inc., priority 1998, dated 2004).

B1: 99 (peptide)
chain: TAKSKKFPSYTATYQFGGKKKIITITRIITIITTIDGGCGETYQSRVTHPHLPRALMRSTTKC

Tested on: human IgE myeloma protein
Assay: Human IgE ELISA of guinea pig immune sera
Parameters: species or system guinea pigs
Conditions: in vivo
Experimental: These peptide immunogens were used to immunize groups of 3 guinea pigs using 100 μg/dose, formulated in CFA at week 0, IFA at weeks 3 and 6, and administered intramuscularly. For comparison, a group of two animals were immunized with a peptide/KLH carrier protein conjugate at 200 μg/dose, similarly administered. ELISA results of serum samples collected at week 8 are shown. In the ELISA a human IgE myeloma protein (American Biosystem, Inc. cat no. A113) was used as the solid-phase immunoadsorbant. The procedure used was identical to the peptide-based ELISAs described previously, except IgE myeloma was used as the solid phase immunoadsorbant. […] The inclusion of the Inv domain sequence (SEQ ID NO:78) augmented the immunogenicity, as shown by the enhanced immunogenicity of SEQ ID NO:99 over SEQ ID NO:98.

Molecule	Log10 ELISA (average for animals of the group)	No. responding
98 (KKKIITITRIITIITTIDGGCGETYQSRVTHPHLPRALMRSTTKC) [compound 98]	2.35 Log10	3/3
B1	3.28 Log10	3/3
